Assay results from patent US20100015174A1, “METHOD TO CONTROL DENGUE VIRUSES IN HUMANS BY PICOLINIC ACID AND DERIVATIVES THEREOF” (priority 2008, published 2010).
Converted amounts (≈) assume the structure as drawn.

Legend:
[1] = system: CMV AD 169 strain; experiment: CMV replication in HEL-299 cells (virus titration); format: cell-based, Cytomegalovirus; details: Human betaherpesvirus 5, 72 h, 3 days, read-out: EC50 for inhibition of CMV replication
Procedure: CMV AD 169 strain (ATCC) was used in the experiments. A CMV susceptible cell line, human fibroblast cells HEL-299 (ATCC), was used in the plaque reduction assays.
90% confluent HEL-299 cells were washed and then Infected with CMV AD169 at 0.5 moi for 2 h at 37° C. Following removal of viral inoculums, the Infected cells were washed and exposed to different concentrations of PA (final concentrations: 0, 10, 100, 250, 500, and 1000 ug/mL) or FA (final concentrations: 0, 1, 10, 30, 60, and 100 ug/mL for 3 days. The culture medium was collected for titration of released virions and the cells were harvested for titration of intracellular virions.
90% confluent HEL-299 cells in 24 well plates were Infected with 200 uL of CMV dilutions at 37° C. for 2 h. Following removal of virus inoculums, the infected cells were washed with PBS and overlaid with 0.5% methylcellulose in culture medium. We then treated CMV Infected cells for 3 days at 37° C. with different concentrations of PA and FA. The culture medium was collected for titration of released virus and the cells were harvested for titration of intracellular virus.

[2] = system: BVDV Trangie strain; experiment: BVDV virus yield reduction in MDBK cells (immunoperoxidase staining); format: cell-based, Bovine Viral Diarrhea Virus; details: 3 days
Procedure: BVDV Trangie strain, a well characterized non-cytopathic Australian isolate, was used in this study. The virus was cultured in MDBK cells (ATCC), and titred by immunoperoxidase staining.
80% confluent MDBK cells were infected with BVDV at a moi of 0.01 at 37° C. for 1 h. After viral inoculums was removed, Infected cells were washed with PBS and then incubated with culture medium containing PA at concentrations of 0, 10, 100, 250, 500, and 1000 ug/mL or FA at concentrations of 0, 1, 10, 30, 60, and 100 ug/mL at 37° C. for 3 days. The culture medium was then collected and stored at −70° C. The cells were harvested by one frozen/thawed cycle and centrifugation to pellet debris. The supernatant was collected and stored at −70° C.
PA of FA-treated cultures were 10-fold serially diluted, 50 uL of each dilution was added to 80% confluent MDBK cells in a 96-well plate, and incubated at 37° C. for 1 h. The innoculum was removed by washing with PBS once. The Infected cells were covered with 200 uL of 0.5% methylcellulose in culture medium and incubated at 37° C. for 2 days. After washing with PBS, the cells were fixed with 200 uL of 5% formalin in PBS for 10 min at room temperature. Subsequently, they were washed with 0.05% Tween −20/dH2O three times. Then, the cells were incubated with 50 uL mixture of three monoclonal antibodies against BVDV NS3 for 80 min at 37° C. in a humidified box. The cells were then washed as above and incubated with 50 uL of rabbit anti-mouse IgG Peroxidase-conjugate (DAKO) diluted 1:200 in 1% gelatin/PBS for 90 min at 37° C. in a humidified box. After final washes as described above, 200 uL of 3-amino-9-ethyl-carbazole was added to each well and incubated at room temperature for 30 min until the cells were stained.
The BVDV closely resembles HCV persistent Infection. After Infection with BVDV cultured MBDK were treated with different concentrations of PA or FA for 3 days. The antiviral effect was determined by virus yield reduction assays (i.e. staining using monoclonal antibodies against NS3, or titration of intracellular and extracellular virus by immunoperoxidase staining.

[3] = system: J2 retrovirus; details: GG2EE transformed macrophages; cited from earlier work
[4] = system: certain lymphomas, and viral diseases such as Herpes simplex labialis, herpes zoster and papilloma viruses; experiment: Systemic picolinic acid capsules in humans; format: in vivo; details: 00 gelatin capsules at 500 mg per capsule
Source text: A systemic preparation of picolinic acid, its derivatives or analogs, containing approximately 1% to 100% active ingredient, may be administered orally, intravenously, intramuscularly or by any acceptable route for the treatment of viral systemic infections such as Dengue. […] Likewise, an injectable form may be prepared.

Structure (SMILES): CCCCc1ccc(C(=O)O)nc1 [FA, fusaric acid]
- EC50 [1]: ~60 µg/mL (≈ 335 µM)
- BVDV virus yield ([2]; FA 1 μg/ml): 2.4 × 10^5 (pfu/ml)
- BVDV virus yield, % of control ([2]; FA 1 μg/ml): 80.0 % of control
- BVDV virus yield ([2]; FA 10 μg/ml): 1.8 × 10^5 (pfu/ml)
- BVDV virus yield, % of control ([2]; FA 10 μg/ml): 60.0 % of control
- BVDV virus yield ([2]; FA 30 μg/ml): 2.5 × 10^5 (pfu/ml)
- BVDV virus yield, % of control ([2]; FA 30 μg/ml): 83.3 % of control
- BVDV virus yield ([2]; FA 60 μg/ml): 1.5 × 10^5 (pfu/ml)
- BVDV virus yield, % of control ([2]; FA 60 μg/ml): 50.0 % of control
- activity against BVDV ([2]; MDBK cells): active

Structure (SMILES): O=C(O)c1ccccn1 [PA, picolinic acid]
- J2 retrovirus expression [3]: not affected
- EC50 [1]: ~230 µg/mL (≈ 1870 µM)
- reduction of BVDV virus yield ([2]; 250 ug/mL): 76%
- EC50 ([2]; Bovine viral diarrhea virus isolates and strains, 72 h, MDBK cells, read-out: EC50 against BVDV): 60 µg/mL (≈ 487 µM)
- activity against BVDV ([2]; MDBK cells): active
- BVDV virus yield ([2]; PA 10 μg/ml): 3.2 × 10^5 (pfu/ml)
- BVDV virus yield, % of control ([2]; PA 10 μg/ml): 78.0 % of control
- BVDV virus yield ([2]; PA 100 μg/ml): 2.5 × 10^5 (pfu/ml)
- BVDV virus yield, % of control ([2]; PA 100 μg/ml): 61.0 % of control
- BVDV virus yield ([2]; PA 250 μg/ml): 1.0 × 10^5 (pfu/ml)
- BVDV virus yield, % of control ([2]; PA 250 μg/ml): 24.4 % of control
- BVDV virus yield ([2]; PA 500 μg/ml): 0.35 × 10^5 (pfu/ml)
- BVDV virus yield, % of control ([2]; PA 500 μg/ml): 8.5 % of control
- control of certain lymphomas and viral diseases in humans [4]: effective
